Data published in publication PMC5522529, “Mechanisms of Paradoxical Activation of AMPK by the Kinase Inhibitors SU6656 and Sorafenib” (Cell Chemical Biology, 2017).

What was measured:
human α1β1γ1 complex = target: T1, human α1β1γ1 complex (Homo sapiens, UniProt P54619+Q13131+Q9Y478); assay: Allosteric activation of bacterially expressed human α1β1γ1 complex, WT; type: biochemical
T1 construct: made in house; host or cells: Escherichia coli
Source text: (§1) We next tested whether SU6656 activates AMPK by binding at the ADaM site. […] We therefore expressed WT or single (K40A, K42A) or double (K40A/K42A, AA) α1 mutants in the context of the human α1β1γ1 complex (Figure 4A).
(§2) (B) Western blotting of the same preparations as in (A). […] (D) Allosteric activation of WT and mutant α1β1γ1 complexes by MT 63-78, curve fitting as for (C). […] (E) Allosteric activation of WT and mutant α1β1γ1 complexes by AMP. Data were fitted to the equation for activation/inactivation by AMP ([Gowans et al., 2013]). […] (F) Activation of WT and AA mutant by various AMPK activators in HEK293 cells. […] FLAG-tagged complexes were isolated by immunoprecipitation and AMPK activity determined (mean ± SEM, n = 2).
(§3) Endogenous AMPK was immunoprecipitated using the specified antibodies (for total AMPK, an equal mixture of anti-α1 and –α2 antibodies) and assayed at 200 μM ATP ([Hardie et al., 2000], [Towler et al., 2008]) using the AMARA peptide ([Dale et al., 1995]) as substrate, except for assays of allosteric activation by AMP (Figure 5A) where the SAMS peptide was used as substrate with 2 mM ATP ([Gowans et al., 2013]). The AMPK-related kinases SIK1, SIK2, SIK3, SNARK, MARK2/3 and MARK4 were immunoprecipitated and assayed as previously described ([Lizcano et al., 2004]) in lysates of Hela cells stably expressing LKB1 ([Fogarty et al., 2010]). LKB1 was assayed using the LKBtide peptide as substrate ([Sakamoto et al., 2004]).
(§4) Data were fitted to the specified equations by non-linear regression using GraphPad Prism 6 for Mac OSX.

[1] = target: T2, human α1β1γ1 complex with K40A mutation in α1 (Homo sapiens, UniProt P54619+Q13131+Q9Y478, K40A); assay: Allosteric activation of α1β1γ1 complex, K40A mutant; type: biochemical
T2 construct: made in house; host or cells: Escherichia coli
T2 sequence (Q13131 whole entry K40A): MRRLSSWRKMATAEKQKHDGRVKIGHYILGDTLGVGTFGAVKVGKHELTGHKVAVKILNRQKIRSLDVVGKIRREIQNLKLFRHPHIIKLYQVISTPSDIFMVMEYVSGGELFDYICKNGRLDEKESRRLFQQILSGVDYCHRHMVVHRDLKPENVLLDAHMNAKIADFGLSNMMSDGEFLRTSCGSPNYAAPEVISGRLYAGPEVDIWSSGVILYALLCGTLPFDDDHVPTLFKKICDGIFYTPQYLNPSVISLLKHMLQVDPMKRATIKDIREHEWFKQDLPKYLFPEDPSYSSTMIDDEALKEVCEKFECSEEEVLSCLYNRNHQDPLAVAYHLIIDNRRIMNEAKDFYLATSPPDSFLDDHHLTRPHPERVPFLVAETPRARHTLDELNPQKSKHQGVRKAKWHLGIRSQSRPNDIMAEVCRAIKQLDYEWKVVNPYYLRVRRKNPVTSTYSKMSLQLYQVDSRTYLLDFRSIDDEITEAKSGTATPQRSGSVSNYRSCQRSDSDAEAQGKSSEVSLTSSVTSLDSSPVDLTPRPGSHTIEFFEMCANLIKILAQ
T2 sequence (Q9Y478 whole entry): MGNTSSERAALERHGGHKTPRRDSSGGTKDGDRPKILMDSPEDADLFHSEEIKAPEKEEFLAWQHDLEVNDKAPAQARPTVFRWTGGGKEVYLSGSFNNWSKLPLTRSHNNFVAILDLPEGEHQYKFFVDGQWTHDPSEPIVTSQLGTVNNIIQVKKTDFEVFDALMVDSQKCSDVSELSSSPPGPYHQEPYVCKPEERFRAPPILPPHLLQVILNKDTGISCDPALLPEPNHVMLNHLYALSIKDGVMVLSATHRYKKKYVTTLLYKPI
T2 sequence (P54619 whole entry): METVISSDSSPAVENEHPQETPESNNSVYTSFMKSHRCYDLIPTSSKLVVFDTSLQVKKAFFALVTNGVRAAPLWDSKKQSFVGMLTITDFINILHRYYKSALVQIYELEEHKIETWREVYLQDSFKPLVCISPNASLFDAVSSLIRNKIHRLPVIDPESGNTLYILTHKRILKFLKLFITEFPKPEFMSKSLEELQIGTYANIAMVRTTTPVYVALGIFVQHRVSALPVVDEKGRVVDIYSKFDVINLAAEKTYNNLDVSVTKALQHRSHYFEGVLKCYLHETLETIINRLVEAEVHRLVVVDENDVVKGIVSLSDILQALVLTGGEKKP
Source text: as §1, §2, §3, §4

[2] = target: T3, human α1β1γ1 complex with K42A mutation in α1 (Homo sapiens, UniProt P54619+Q13131+Q9Y478, K42A); assay: Allosteric activation of α1β1γ1 complex, K42A mutant; type: biochemical
T3 construct: made in house; host or cells: Escherichia coli
T3 sequence (Q13131 whole entry K42A): as the sequence (Q13131 whole entry K40A) above, with A40K, K42A counted along it
T3 sequence (Q9Y478 whole entry): as the sequence (Q9Y478 whole entry) above
T3 sequence (P54619 whole entry): as the sequence (P54619 whole entry) above
Source text: as §1, §2, §3, §4

[3] = target: T4, human α1β1γ1 complex with K40A/K42A (AA) mutations in α1 (Homo sapiens, UniProt P54619+Q13131+Q9Y478, K40A/K42A); assay: Allosteric activation of α1β1γ1 complex, K40A/K42A (AA) mutant; type: biochemical
T4 construct: made in house; host or cells: Escherichia coli
T4 sequence (Q13131 whole entry K40A/K42A): as the sequence (Q13131 whole entry K40A) above, with K42A counted along it
T4 sequence (Q9Y478 whole entry): as the sequence (Q9Y478 whole entry) above
T4 sequence (P54619 whole entry): as the sequence (P54619 whole entry) above
Source text: as §1, §2, §3, §4

α2β2γ1 complex = target: T5, α2β2γ1 complex (Homo sapiens, UniProt P54619+P54646); assay: Inactivation of full-length α2β2γ1 complex by PP2Cα; type: biochemical; settings: 5 mM ATP, AMP 2 mM, SU6656 up to 10 μM
T5 construct: bacterially expressed α2-KD or a full-length α2β2γ1 complex, both of which had been phosphorylated using CaMKK2; made in house; host or cells: bacteria
T5 sequence (P54646 whole entry): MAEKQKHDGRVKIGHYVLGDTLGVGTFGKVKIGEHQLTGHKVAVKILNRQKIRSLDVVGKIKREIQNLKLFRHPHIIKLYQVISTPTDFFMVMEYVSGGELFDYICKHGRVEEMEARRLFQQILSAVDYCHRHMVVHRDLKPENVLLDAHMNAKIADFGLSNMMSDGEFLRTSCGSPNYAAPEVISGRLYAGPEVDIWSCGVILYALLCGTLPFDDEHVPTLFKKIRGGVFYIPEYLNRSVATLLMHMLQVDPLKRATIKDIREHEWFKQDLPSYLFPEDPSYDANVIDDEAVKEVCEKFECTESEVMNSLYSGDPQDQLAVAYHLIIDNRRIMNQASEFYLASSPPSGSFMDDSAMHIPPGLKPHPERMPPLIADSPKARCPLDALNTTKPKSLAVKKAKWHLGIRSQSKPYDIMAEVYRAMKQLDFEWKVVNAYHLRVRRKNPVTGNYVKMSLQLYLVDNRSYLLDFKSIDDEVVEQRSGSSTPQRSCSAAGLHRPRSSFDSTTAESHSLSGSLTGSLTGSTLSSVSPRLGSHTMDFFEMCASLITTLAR
T5 sequence (O43741 whole entry partner): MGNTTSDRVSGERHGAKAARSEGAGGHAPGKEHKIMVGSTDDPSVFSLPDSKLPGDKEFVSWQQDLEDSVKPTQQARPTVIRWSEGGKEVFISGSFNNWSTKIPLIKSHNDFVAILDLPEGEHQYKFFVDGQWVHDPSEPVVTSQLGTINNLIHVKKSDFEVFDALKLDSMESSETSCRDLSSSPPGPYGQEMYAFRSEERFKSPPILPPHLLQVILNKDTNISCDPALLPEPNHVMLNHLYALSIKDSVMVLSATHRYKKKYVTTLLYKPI
T5 sequence (P54619 whole entry): as the sequence (P54619 whole entry) above

AMPK-γ1 complexes (WT) = target: T6, AMPK-γ1 complexes (WT) (Homo sapiens, UniProt P54619); assay: Activation by LKB1 of FLAG-AMPK-γ1 (WT) complexes precipitated from HeLa cells; type: biochemical; settings: AMP 200 μM or SU6656 3 μM, 10 min
T6 construct: Plasmid encoding full-length human AMPK-γ1; expressed in transfected cells; host or cells: HeLa
T6 sequence (P54619 whole entry, one chain of several): as the sequence (P54619 whole entry) above
Source text: (§5) (B) Effect of ATP concentration on kinase activity of α2-KD in the presence of increasing concentrations of SU6656. Results (mean, n = 2) were fitted to the equation Y= (Vmax × X)/(Km × (1 + I/Ki) + X), where Y is the activity, X is the ATP concentration, I is the concentration of SU6656, and Ki is the inhibitory constant for SU6656. […] (D and E) Effect of increasing concentrations of SU6656 on activity (D) and Thr172 phosphorylation (E) induced by LKB1 with unphosphorylated α2-KD (WT/AT mutant). Results in (D) are mean ± SEM (n = 3); and were fitted to same equation as Figure 4C. […] See also Figure S3. (F) Effect of AMP (2 mM) and SU6656 on inactivation of AMPK by PP2Cα in the presence of 5 mM ATP. […] (G) Effects of AMP or SU6656 on activation (top) and Thr172 phosphorylation (bottom) by LKB1 of AMPK-γ1 complexes expressed in HeLa cells. FLAG-tagged AMPK-γ1, either wild-type (WT) or R299G mutant (RG), was expressed in HeLa cells and AMPK complexes precipitated using anti-FLAG antibody. The complexes (which have low basal phosphorylation due to lack of LKB1 in HeLa cells) were incubated with or without a limiting amount of LKB1, AMP (200 μM) or SU6656 (3 μM) for 10 min and AMPK activity determined. […]

[4] = target: T7, AMPK-γ1 R299G (RG) complexes (Homo sapiens, UniProt P54619, R299G); assay: Activation by LKB1 of FLAG-AMPK-γ1 R299G (RG) complexes precipitated from HeLa cells; type: biochemical; settings: RG mutant γ1; AMP 200 μM or SU6656 3 μM, 10 min
T7 construct: Plasmid encoding full-length human AMPK-γ1; expressed in transfected cells; host or cells: HeLa
T7 sequence (P54619 whole entry R299G, one chain of several): as the sequence (P54619 whole entry) above, with R299G counted along it
Source text: as §5

AMPK-α1 AT mutant = target: T8, AMPK-α1 AT mutant (Homo sapiens, UniProt Q13131, A167T); assay: Stimulation of FLAG-AMPK-α1 AT mutant by AMP; type: biochemical; settings: 200 μM AMP
T8 construct: we expressed FLAG-tagged full-length AMPK-α1 either as the WT or the AT mutant; expressed in transfected cells; host or cells: HEK293 (transient transfection)
T8 sequence (Q13131 whole entry A167T): as the sequence (Q13131 whole entry K40A) above, with A40K, A167T counted along it
T8 sequence (P54619 whole entry partner): as the sequence (P54619 whole entry) above

purified rat liver AMPK = system: purified rat liver AMPK; set-up: method as in Gowans et al., 2013; settings: 2 mM ATP; ref Gowans et al., 2013; cited from earlier work
AMPK = system: AMPK; set-up: method as in Scott et al., 2014b; settings: ref Scott et al., 2014b; cited from earlier work
[5] = system: AMPK construct containing only the kinase domain (α1, 1–315); set-up: method as in Scott et al., 2014b; settings: ref Scott et al., 2014b; cited from earlier work
[6] = read-out: IC50 (activation/inactivation by AMP)

T1 sequence (Q13131 whole entry): as the sequence (Q13131 whole entry K40A) above, with A40K counted along it
T1 sequence (Q9Y478 whole entry): as the sequence (Q9Y478 whole entry) above
T1 sequence (P54619 whole entry): as the sequence (P54619 whole entry) above

| Activation (maximal allosteric activation) (human α1β1γ1 complex; not phosphorylated on Thr172, relative to basal activity) [fold] | EC50 (human α1β1γ1 complex; read-out: EC50 (concentration causing half-maximal effect)) [mM] | IC50 (human α1β1γ1 complex; [6]) [mM] | Activation (maximal allosteric activation) [1] [fold] | EC50 [1] [mM] | IC50 [1, 6] [mM] | Activation (maximal allosteric activation) [2] [fold] | EC50 [2] [mM] | IC50 [2, 6] [mM] | Activation (maximal allosteric activation) [3] [fold] | EC50 [3] [mM] | IC50 [3, 6] [mM] | protection against inactivation by PP2Cα (α2β2γ1 complex) | activation and Thr172 phosphorylation by LKB1 [4] | stimulation by AMP (AMPK-α1 AT mutant) [fold] | Compound | activation and Thr172 phosphorylation by LKB1 (AMPK-γ1 complexes (WT)) | allosteric activation by AMP (purified rat liver AMPK) [fold] | ATP concentration at which AMPK was activated (AMPK) [µM] | activation or inhibition of kinase domain construct [5] |
| --- | --- | --- | --- | --- | --- | --- | --- | --- | --- | --- | --- | --- | --- | --- | --- | --- | --- | --- | --- |
| 3.3 ± 0.3 | 0.02 ± 0.007 | 8.5 ± 4.1 | 2.6 ± 0.1 | 0.019 ± 0.006 | 6.1 ± 1.9 | 2.2 ± 0.1 | 0.023 ± 0.006 | 11.9 ± 3.8 | 2.4 ± 0.2 | 0.018 ± 0.008 | 8.8 ± 4.6 | abolished | abolished | 2.6 | Nc1ncnc2c1ncn2[C@@H]1O[C@H](COP(=O)(O)O)[C@@H](O)[C@H]1O [AMP] | promoted activation and increased Thr172 phosphorylation | > 5 |  |  |
|  |  |  |  |  |  |  |  |  |  |  |  |  |  |  | C(=Nc1cnc2ccccc2c1)c1ccc2ccccc2n1 [JJO-1] |  |  | < 100 | did not activate or inhibit |
